From US7741327B2 (Hoffmann-La Roche Inc., priority 2008, dated 2010)

target: T1, Recombinant human liver GK1 (GST-GK) (Homo sapiens, UniProt P35557); experiment: In vitro glucokinase activity (G6PDH-coupled NADH assay); type: biochemical; details: 30° C., 5 mM D-glucose, 10% DMSO
T1 construct: made in house; host or cells: E. coli
T1 sequence (P35557 1-466 isoform P35557-2): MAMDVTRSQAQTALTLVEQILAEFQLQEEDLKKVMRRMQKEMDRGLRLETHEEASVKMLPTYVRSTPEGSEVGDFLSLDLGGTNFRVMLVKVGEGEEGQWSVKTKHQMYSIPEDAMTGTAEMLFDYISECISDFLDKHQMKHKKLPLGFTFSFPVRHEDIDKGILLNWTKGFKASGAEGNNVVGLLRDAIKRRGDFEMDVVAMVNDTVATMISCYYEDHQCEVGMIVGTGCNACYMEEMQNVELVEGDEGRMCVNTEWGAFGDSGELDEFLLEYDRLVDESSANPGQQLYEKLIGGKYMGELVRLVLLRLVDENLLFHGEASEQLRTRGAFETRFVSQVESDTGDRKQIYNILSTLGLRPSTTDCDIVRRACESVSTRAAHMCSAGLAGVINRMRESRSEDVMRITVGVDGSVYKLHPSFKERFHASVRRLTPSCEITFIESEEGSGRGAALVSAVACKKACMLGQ
How it was run: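 Activation measured as the rate of OD340 rise from G6PDH-coupled NADH production, relative to 10% DMSO control, reported as SC1.5 (concentration for 50% activity increase). Conditions: 30° C, pH 7.1 Hepes, 5 mM glucose, 1 mM ATP, purified recombinant GST-human GK1, compound preincubated 10 min before enzyme addition.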

Row | Compound | SC1.5 (concentration of activator that produced a 50% increase in the activity of GK)
1 | COC(C)(C)Cn1ccc(NC(=O)[C@H](CC2CCCC2)N2CC(OC(C)C)=CC2=O)n1 [Example 22, (S)-3-Cyclopentyl-N-[1-(2-methoxy-2-methyl-propyl)-1H-pyrazol-3-yl]-2-(4-isopropoxy-2-oxo-2,5-dihydro-pyrrol-1-yl)-propionamide] | 1.048 µM
2 | CC[C@@H](C)C[C@@H](C(=O)Nc1ccn(C[C@@H](O)CO)n1)N1CC(Oc2ccccc2Cl)=CC1=O [Example 255, (2S,4R)-2-[4-(2-Chloro-phenoxy)-2-oxo-2,5-dihydro-pyrrol-1-yl]-4-methyl-hexanoic acid [1-((R)-2,3-dihydroxy-propyl)-1H-pyrazol-3-yl]-amide] | 0.048 µM
3 | Cc1cccc(OC2=CC(=O)N([C@@H](CC3CCCCC3)C(=O)Nc3ccn(CC(C)(C)O)n3)C2)c1 [Example 210, (S)-3-cyclohexyl-N-[1-(2-hydroxy-2-methyl-propyl)-1H-pyrazol-3-yl]-2-(2-oxo-4-m-tolyloxy-2,5-dihydro-pyrrol-1-yl)-propionamide] | 0.018 µM
4 | CC(C)C[C@@H](C(=O)Nc1ccn(C[C@@H]2COC(C)(C)O2)n1)N1CC(Oc2cccc(Cl)c2Cl)=CC1=O [Example 79, (S)-2-[4-(2,3-Dichloro-phenoxy)-2-oxo-2,5-dihydro-pyrrol-1-yl]-4-methyl-pentanoic acid [1-((R)-2,2-dimethyl-[1,3]dioxolan-4-yl-methyl)-1H-pyrazol-3-yl]-amide] | 0.682 µM
5 | CCO[C@@H](C)C[C@@H](C(=O)Nc1ccn(CC(C)(C)O)n1)N1CC(Oc2cccc(Cl)c2Cl)=CC1=O [Example 95, (2S,4S)-2-[4-(2,3-Dichloro-phenoxy)-2-oxo-2,5-dihydro-pyrrol-1-yl]-4-ethoxy-pentanoic acid [1-(2-hydroxy-2-methyl-propyl)-1H-pyrazol-3-yl]-amide] | 0.703 µM
6 | O=C(Nc1ccn(C[C@@H](O)CO)n1)C(CC1C[C@@H](F)[C@@H](F)C1)N1CC(Oc2ccccc2Cl)=CC1=O (stereo partly drawn) [Example 263, 2-[4-(2-Chloro-phenoxy)-2-oxo-2,5-dihydro-pyrrol-1-yl]-3-((1R,3S,4R)-3,4-difluoro-cyclopentyl)-N-[1-((R)-2,3-dihydroxy-propyl)-1H-pyrazol-3-yl]-propionamide] | 0.09 µM
7 | COc1ccccc1OC1=CC(=O)N([C@@H](CC2CCCCC2)C(=O)Nc2ccn(C)n2)C1 [Example 29, (S)-3-Cyclohexyl-N-(1-methyl-1H-pyrazol-3-yl)-2-[4-(2-methoxy-phenoxy)-2-oxo-2,5-dihydro-pyrrol-1-yl]-propionamide] | 0.033 µM
8 | CC(C)(O)Cn1ccc(NC(=O)[C@H](CC2CCCCC2)N2CC(Oc3ccccc3Cl)=CC2=O)n1 [Example 61, (S)-2-[4-(2-Chloro-phenoxy)-2-oxo-2,5-dihydro-pyrrol-1-yl]-3-cyclohexyl-N-[1-(2-hydroxy-2-methyl-propyl)-1-H-pyrazol-3-yl]-propionamide] | 0.006 µM
9 | CCOc1cccc(OC2=CC(=O)N([C@@H](C[C@H](C)OCC)C(=O)Nc3ccn(CC(C)(C)O)n3)C2)c1F [Example 259, (2S,4S)-4-Ethoxy-2-[4-(3-ethoxy-2-fluoro-phenoxy)-2-oxo-2,5-dihydro-pyrrol-1-yl]-pentanoic acid [1-(2-hydroxy-2-methyl-propyl)-1H-pyrazol-3-yl]-amide] | 0.984 µM
10 | CC(C)(O)Cn1ccc(NC(=O)C(CC2CCOCC2)N2CC(Oc3c(F)cccc3F)=CC2=O)n1 (stereo not shown) [Example 42, 2-[4-(2,6-Difluoro-phenoxy)-2-oxo-2,5-dihydro-pyrrol-1-yl]-N-[1-(2-hydroxy-2-methyl-propyl)-1H-pyrazol-3-yl]-3-(tetrahydro-pyran-4-yl)-propionamide] | 0.148 µM
11 | CC(C)C[C@@H](C(=O)Nc1nc(N(C)C)ns1)N1CC(Oc2ccccc2Cl)=CC1=O [Example 108, (S)-2-[4-(2-Chloro-phenoxy)-2-oxo-2,5-dihydro-pyrrol-1-yl]-4-methyl-pentanoic acid (3-dimethylamino-[1,2,4]thiadiazol-5-yl)-amide] | > 30 µM
12 | CCOc1cccc(OC2=CC(=O)N([C@@H](CC(C)C)C(=O)Nc3ccn(CC(C)(C)O)n3)C2)c1 [Example 163, (S)-2-[4-(3-Ethoxy-phenoxy)-2-oxo-2,5-dihydro-pyrrol-1-yl]-4-methyl-pentanoic acid [1-(2-hydroxy-2-methyl-propyl)-1H-pyrazol-3-yl]-amide] | 0.239 µM
13 | O=C(Nc1ccn(C[C@@H](O)CO)n1)[C@@H](CC1CCC1)N1CC(Oc2ccccc2Cl)=CC1=O [Example 177, (R)-2-[4-(2-chloro-phenoxy)-2-oxo-2,5-dihydro-pyrrol-1-yl]-3-cyclobutyl-N-[1-((R)-2,3-dihydroxy-propyl)-1H-pyrazol-3-yl]-propionamide] | 4.725 µM
14 | CC(C)C[C@@H](C(=O)Nc1ccn(CC(C)(C)O)n1)N1CC(Oc2cccc3ocnc23)=CC1=O [Example 242, (S)-2-[4-(Benzooxazol-4-yloxy)-2-oxo-2,5-dihydro-pyrrol-1-yl]-4-methyl-pentanoic acid [1-(2-hydroxy-2-methyl-propyl)-1H-pyrazol-3-yl]-amide] | 3.036 µM
15 | CC1(C)OC[C@@H](Cn2ccc(NC(=O)[C@H](CC3CCCC3)N3CC(Oc4c(F)cccc4F)=CC3=O)n2)O1 [Example 87, (S)-3-Cyclopentyl-2-[4-(2,6-difluoro-phenoxy)-2-oxo-2,5-dihydro-pyrrol-1-yl]-N-[1-((R)-2,2-dimethyl-[1,3]dioxolan-4-yl-methyl)-1H-pyrazol-3-yl]-propionamide] | 0.093 µM
16 | CC(C)C[C@@H](C(=O)Nc1ccn(C[C@H]2COC(C)(C)O2)n1)N1CC(Oc2ccccc2Cl)=CC1=O [Example 174, (S)-2-[4-(2-Chloro-phenoxy)-2-oxo-2,5-dihydro-pyrrol-1-yl]-4-methyl-pentanoic acid [1-((S)-2,2-dimethyl-[1,3]dioxolan-4-yl-methyl)-1H-pyrazol-3-yl]-amide] | 0.133 µM
17 | COC1=CC(=O)N([C@@H](CC2CCCC2)C(=O)Nc2ccn(CC(C)(C)O)n2)C1 [Example 1, (S)-3-Cyclopentyl-N-[1-(2-hydroxy-2-methyl-propyl)-1H-pyrazol-3-yl]-2-(4-methoxy-2-oxo-2,5-dihydro-pyrrol-1-yl)-propionamide] | 3.771 µM
18 | CC(C)C[C@@H](C(=O)Nc1cnccn1)N1CC(Oc2cccc(CC(C)(C)O)c2)=CC1=O [Example 246, (S)-2-{4-[3-(2-Hydroxy-2-methyl-propyl)-phenoxy]-2-oxo-2,5-dihydro-pyrrol-1-yl}-4-methyl-pentanoic acid pyrazin-2-ylamide] | 1.708 µM

same assay, conditions: at 30 μM test compound

Row | Compound | fold act. @ 30 μM
19 | CC(C)C[C@@H](C(=O)Nc1nc(N(C)C)ns1)N1CC(Oc2ccccc2Cl)=CC1=O [Example 108, (S)-2-[4-(2-Chloro-phenoxy)-2-oxo-2,5-dihydro-pyrrol-1-yl]-4-methyl-pentanoic acid (3-dimethylamino-[1,2,4]thiadiazol-5-yl)-amide] | 1.4 fold
